Consider 20 molecules from PMC7397174, “4-Arylthieno[2,3-b]pyridine-2-carboxamides Are a New Class of Antiplasmodial Agents” (Molecules, 2020).

The subject of data set [1] is erythrocytic forms of P. falciparum (strain 3D7). As to the kind of experiment: Viability screening of antiplasmodial activity (SYBR-gold DNA quantification, 96 h). Type of data set: cell-based, Plasmodium falciparum. The conditions noted are these: for SI (Selectivity index for 3D7 erythrocytic forms versus HEK293 cells): 3D7 versus HEK293 cells; for IC50 / activity at 0.3 µM / activity at 3 µM: Plasmodium falciparum; for IC50: 3D7, strain 3D7, erythrocytic forms; for activity at 0.3 µM / activity at 3 µM: 96 h, strain 3D7, calculated on DMSO controls; for activity at 0.3 µM: read-out: Parasitemia (3D7) at 0.3 µM [%]; for activity at 3 µM: read-out: Parasitemia (3D7) at 3 µM [%].

In another data set the target is rPfGSK-3 (Plasmodium falciparum, UniProt O77344). As to the kind of experiment: KinaseGlo Plus assay for inhibition of PfGSK-3. It is filed as biochemical. To be noted: 10 µM; remaining activity, calculated on DMSO controls; Table 3; read-out: rPfGSK-3 Activity at 10 µM [%].
Sequence of rPfGSK-3 (O77344 entry or part of it): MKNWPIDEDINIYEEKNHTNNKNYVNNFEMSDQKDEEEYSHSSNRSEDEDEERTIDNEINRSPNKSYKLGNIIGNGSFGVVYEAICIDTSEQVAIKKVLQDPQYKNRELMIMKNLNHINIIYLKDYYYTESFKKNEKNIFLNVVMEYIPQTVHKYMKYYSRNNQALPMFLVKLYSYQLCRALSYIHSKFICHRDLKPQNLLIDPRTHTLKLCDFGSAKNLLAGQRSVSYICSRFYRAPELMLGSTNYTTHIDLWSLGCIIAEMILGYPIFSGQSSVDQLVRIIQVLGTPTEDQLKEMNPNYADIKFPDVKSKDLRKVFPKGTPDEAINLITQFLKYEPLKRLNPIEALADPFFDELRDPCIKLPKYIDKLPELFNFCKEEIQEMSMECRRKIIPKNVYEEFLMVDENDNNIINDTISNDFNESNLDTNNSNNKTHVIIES
The nature of another data set: in vitro. Type of data set: cell-based, human. To be noted: human, HEK293T Viability at 30 µM [%]. How it is done:
Cytotoxic effects of test compounds on eukaryotic cells were investigated using a HEK293T cell viability assay. First, the cell density of a HEK293T culture was determined. […] The supernatant was then aspirated and fresh culture medium was added to 200 μL into which the test compounds were previously added. All substances were previously dissolved in DMSO. […] The viability of the cells was then examined by adding PrestoBlue® Cell Viability Agent (Invitrogen, Carlsbad, CA, USA). The supernatant was removed, 10% PrestoBlue® was added in preheated PBS and the culture was incubated for 30 min at 37 °C. In cells with an active metabolism, the PrestoBlue dye is reduced, causing it to fluorescence. The fluorescence (λex = 560 nm, λem = 590 nm) was measured in an EnVision Multilable Plate Reader (Perkin Elmer, Waltham, MA, USA; integration time 0.1 sec/well).

Structures can show the parent of a compound that is named as a salt.

Regarding `N#Cc1c(N)nc2sc(C(=O)Nc3ccc(Cl)cc3)c(N)c2c1-c1cccc(Cl)c1` [Compound 9a, 3,6-Diamino-4-(3-chlorophenyl)-N-(4-chlorophenyl)-5-cyanothieno[2,3-b]pyridine-2-carboxamide], in data set [1], the “SI (Selectivity index for 3D7 erythrocytic forms versus HEK293 cells)” value is recorded as over 70, the IC50 worked out at 410 nM, the activity at 0.3 µM is 23.1 ± 10.8% and the activity at 3 µM is 3.7 ± 3.6%. The remaining activity at 10 µM on rPfGSK-3 is 80.3 ± 18.2%. Besides, the viability at 48 h, 30 µM in the data set “in vitro” was determined as 123 ± 8.4%.

For the molecule `N#Cc1c(N)nc2sc(C(=O)Nc3ccc(F)cc3)c(N)c2c1-c1ccc(N2CCCC2)cc1Cl` [Compound 9aa, 3,6-Diamino-4-[2-chloro-4-(pyrrolidin-1-yl)phenyl]-5-cyano-N-(4-fluorophenyl)thieno[2,3-b]pyridine-2-carboxamide], in data set [1], the activity at 0.3 µM is 61.8 ± 27.7% and the activity at 3 µM was 5.3 ± 2.6%. Besides, the remaining activity at 10 µM at rPfGSK-3 is 101 ± 3.7%. Also, the viability at 48 h, 30 µM in “in vitro” stood at 74 ± 8.6%.

As for `CN(C)CCN(C)c1ccc(-c2c(C#N)c(N)nc3sc(C(=O)Nc4ccc(F)cc4)c(N)c23)c(Cl)c1` [Compound 9ab, 3,6-Diamino-4-(2-chloro-4-{[2-(dimethylamino)ethyl](methyl)amino}phenyl)-5-cyano-N-(4-fluorophenyl)thieno[2,3-b]pyridine-2-carboxamide], in data set [1], the activity at 0.3 µM was 16.7 ± 19.5% and the activity at 3 µM is 1.6 ± 11%. Also, the remaining activity at 10 µM on rPfGSK-3 is 112 ± 13.9%. In addition, the viability at 48 h, 30 µM in “in vitro” was -1.4 ± 13.1%.

With `CN(CCNC(=O)OC(C)(C)C)c1ccc(-c2c(C#N)c(N)nc3sc(C(=O)Nc4ccc(F)cc4)c(N)c23)c(Cl)c1` [Compound 9ac, tert-Butyl {2-[(3-chloro-4-{3,6-diamino-5-cyano-2-[(4-fluorophenyl)carbamoyl]thieno[2,3-b]pyridin-4-yl}phenyl)(methyl)amino]ethyl}carbamate], in data set [1], the activity at 0.3 µM was 30.1 ± 14.2% and the activity at 3 µM is 7.5 ± 5.9%. At rPfGSK-3, the remaining activity at 10 µM is 85.7 ± 8.2%. Also, in “in vitro”, the viability at 48 h, 30 µM came to 55.8 ± 25.1%.

`CN(CCNC(=O)OC(C)(C)C)c1ccc(-c2c(C#N)c(N)nc3sc(C(=O)Nc4ccccc4Cl)c(N)c23)c(Cl)c1` [Compound 9ad, tert-Butyl {2-[(3-chloro-4-{3,6-diamino-2-[(2-chlorophenyl)carbamoyl]-5-cyanothieno[2,3-b]pyridin-4-yl}phenyl)(methyl)amino]ethyl}carbamate]: in data set [1], the activity at 0.3 µM was 57.7 ± 24.1% and the activity at 3 µM is 13.3 ± 9.9%. At rPfGSK-3, the remaining activity at 10 µM is 95 ± 10.7%. In the data set “in vitro”, the viability at 48 h, 30 µM was determined as 76.3 ± 24.1%.

As for `CN(CCN)c1ccc(-c2c(C#N)c(N)nc3sc(C(=O)Nc4cccc(Cl)c4)c(N)c23)c(Cl)c1` [Compound 9ae, 3,6-Diamino-4-{4-[(2-aminoethyl)(methyl)amino]-2-chlorophenyl}-N-(3-chlorophenyl)-5-cyanothieno-[2,3-b]pyridine-2-carboxamide hydrochloride], in data set [1], the activity at 0.3 µM was 1.7 ± 4.2% and the activity at 3 µM was 2.7 ± 7.8%. In addition, the remaining activity at 10 µM on rPfGSK-3 is 101 ± 20.2%. The viability at 48 h, 30 µM in “in vitro” was -8.5 ± 7.4%.

Regarding `CN(C)CCN(C)c1ccc(-c2c(C#N)c(N)nc3sc(C(=O)Nc4cccc(Cl)c4)c(N)c23)c(Cl)c1` [Compound 9af, 3,6-Diamino-4-(2-chloro-4-{[2-(dimethylamino)ethyl](methyl)amino}phenyl)-N-(3-chlorophenyl)-5-cyanothieno[2,3-b]pyridine-2-carboxamide], in data set [1], the activity at 0.3 µM is 5.8 ± 4.7% and the activity at 3 µM is 4.5 ± 7.4%. Further, the remaining activity at 10 µM at rPfGSK-3 is 107 ± 11.2%. Also, the viability at 48 h, 30 µM in the data set “in vitro” is -7.4 ± 6.4%.

In the case of `N#Cc1c(N)nc2sc(C(=O)Nc3ccccc3Cl)c(N)c2c1-c1cccc(F)c1` [Compound 9b, 3,6-Diamino-N-(2-chlorophenyl)-5-cyano-4-(3-fluorophenyl)thieno[2,3-b]pyridine-2-carboxamide], in data set [1], the activity at 0.3 µM was 96 ± 1.9% and the activity at 3 µM was 46 ± 19.7%. Also, the remaining activity at 10 µM at rPfGSK-3 is 102 ± 16.5%. Moreover, the viability at 48 h, 30 µM in “in vitro” was 101 ± 19.6%.

Turning to `N#Cc1c(N)nc2sc(C(=O)Nc3ccccc3Cl)c(N)c2c1-c1cccc(Cl)c1` [Compound 9c, 3,6-Diamino-N-(2-chlorophenyl)-4-(3-chlorophenyl)-5-cyanothieno[2,3-b]pyridine-2-carboxamide], in data set [1], the activity at 0.3 µM was 69.2 ± 26% and the activity at 3 µM is 40 ± 15.9%. Moreover, on rPfGSK-3, the remaining activity at 10 µM was 99 ± 14.1%. For the same molecule, the viability at 48 h, 30 µM in “in vitro” is 99.3 ± 5.3%.

Consider `N#Cc1c(N)nc2sc(C(=O)Nc3ccc(F)cc3)c(N)c2c1-c1cccc(Cl)c1` [Compound 9d, 3,6-Diamino-4-(3-chlorophenyl)-5-cyano-N-(4-fluorophenyl)thieno[2,3-b]pyridine-2-carboxamide], for which, in data set [1], the activity at 0.3 µM is 88.5 ± 17.6% and the activity at 3 µM was 3.5 ± 3.5%. Besides, the remaining activity at 10 µM at rPfGSK-3 was 69.7 ± 16.6%. Besides, the viability at 48 h, 30 µM in the data set “in vitro” came out at 83 ± 21.6%.

Turning to `Cc1cccc(-c2c(C#N)c(N)nc3sc(C(=O)Nc4ccc(Cl)cc4)c(N)c23)c1` [Compound 9e, 3,6-Diamino-N-(4-chlorophenyl)-5-cyano-4-(3-methylphenyl)thieno[2,3-b]pyridine-2-carboxamide], in data set [1], the “SI (Selectivity index for 3D7 erythrocytic forms versus HEK293 cells)” value is on record as over 100, the IC50 turned out to be 273 nM, the activity at 0.3 µM was 9.7 ± 6.8% and the activity at 3 µM is 5.6 ± 5.5%. The remaining activity at 10 µM on rPfGSK-3 was 106 ± 6.5%. For the same molecule, the viability at 48 h, 30 µM in the data set “in vitro” was 83.3 ± 20.6%.

For `Cc1cccc(-c2c(C#N)c(N)nc3sc(C(=O)Nc4ccccc4Cl)c(N)c23)c1` [Compound 9f, 3,6-Diamino-N-(2-chlorophenyl)-5-cyano-4-(3-methylphenyl)thieno[2,3-b]pyridine-2-carboxamide], in data set [1], the activity at 0.3 µM was 80.2 ± 20.3% and the activity at 3 µM was 51.6 ± 15.7%. For the same molecule, at rPfGSK-3, the remaining activity at 10 µM was 90.9 ± 14.2%. In the data set “in vitro”, the viability at 48 h, 30 µM was determined as 93.6 ± 29.9%.

Take `Cc1cccc(-c2c(C#N)c(N)nc3sc(C(=O)Nc4ccc(F)cc4)c(N)c23)c1` [Compound 9g, 3,6-Diamino-5-cyano-N-(4-fluorophenyl)-4-(3-methylphenyl)thieno[2,3-b]pyridine-2-carboxamide]: in data set [1], the activity at 0.3 µM was 63.8 ± 16.5% and the activity at 3 µM is 3.1 ± 2.7%. Besides, the remaining activity at 10 µM on rPfGSK-3 was 74.8 ± 21.7%. In addition, the viability at 48 h, 30 µM in “in vitro” was 67.8 ± 8.1%.

For `N#Cc1c(N)nc2sc(C(=O)Nc3ccc(Cl)cc3)c(N)c2c1-c1cccc(F)c1` [Compound 9h, 3,6-Diamino-N-(4-chlorophenyl)-5-cyano-4-(3-fluorophenyl)thieno[2,3-b]pyridine-2-carboxamide], in data set [1], the activity at 0.3 µM was 63.2 ± 19.5% and the activity at 3 µM is 3.9 ± 2.9%. At rPfGSK-3, the remaining activity at 10 µM was 104 ± 13.3%. In addition, the viability at 48 h, 30 µM in the data set “in vitro” came to 90.7 ± 13.2%.

As to `N#Cc1c(N)nc2sc(C(=O)Nc3ccc(F)cc3)c(N)c2c1-c1cccc(F)c1` [Compound 9i, 3,6-Diamino-5-cyano-4-(3-fluorophenyl)-N-(4-fluorophenyl)thieno[2,3-b]pyridine-2-carboxamide], in data set [1], the activity at 0.3 µM is 65.8 ± 24.6% and the activity at 3 µM is 6.1 ± 4.9%. In addition, the remaining activity at 10 µM on rPfGSK-3 was 70.9 ± 19.8%. Moreover, in the data set “in vitro”, the viability at 48 h, 30 µM was under 50%.

As to `CCCCCCCNC(=O)c1sc2nc(N)c(C#N)c(-c3cccc(C)c3)c2c1N` [Compound 9k, 3,6-Diamino-5-cyano-N-heptyl-4-(3-methylphenyl)thieno[2,3-b]pyridine-2-carboxamide], in data set [1], the activity at 0.3 µM is 72.7 ± 28.2% and the activity at 3 µM was 84 ± 27%. Also, the remaining activity at 10 µM at rPfGSK-3 was 84.7 ± 10.6%. Moreover, in the data set “in vitro”, the viability at 48 h, 30 µM was 54.3 ± 19.1%.

With `Cc1cccc(-c2c(C#N)c(N)nc3sc(C(=O)NC(C)C)c(N)c23)c1` [Compound 9l, 3,6-Diamino-5-cyano-N-isopropyl-4-(3-methylphenyl)thieno[2,3-b]pyridine-2-carboxamide], in data set [1], the activity at 0.3 µM was 80.6 ± 22% and the activity at 3 µM was 79.8 ± 20.3%. For the same molecule, the remaining activity at 10 µM at rPfGSK-3 is 54.1 ± 15.5%. The viability at 48 h, 30 µM in “in vitro” worked out at 70.6 ± 23%.

`Cc1cccc(-c2c(C#N)c(N)nc3sc(C(=O)NCCC4CC4)c(N)c23)c1` [Compound 9o, 3,6-Diamino-5-cyano-N-(2-cyclopropylethyl)-4-(3-methylphenyl)thieno[2,3-b]pyridine-2-carboxamide]: in data set [1], the activity at 0.3 µM was 62.5 ± 23.5% and the activity at 3 µM was 40.8 ± 14.3%. Further, the remaining activity at 10 µM at rPfGSK-3 was 60 ± 11.2%.

For the molecule `CC(C)(C)OC(=O)N1CCN(c2ccc(-c3c(C#N)c(N)nc4sc(C(=O)Nc5cccc(Cl)c5)c(N)c34)c(Cl)c2)CC1` [Compound 9p, tert-Butyl 4-(3-chloro-4-{3,6-diamino-2-[(3-chlorophenyl)carbamoyl]-5-cyanothieno[2,3-b]pyridin-4-yl}phenyl)piperazine-1-carboxylate], in data set [1], the activity at 0.3 µM was 48.3 ± 18% and the activity at 3 µM was 5.4 ± 3.2%. For the same molecule, the remaining activity at 10 µM on rPfGSK-3 is 111 ± 12.1%. For the same molecule, the viability at 48 h, 30 µM in the data set “in vitro” came to 104 ± 14.1%.

With `Nc1c(C(=O)Nc2ccc(Cl)cc2)sc2nc3c(c(-c4ccccc4)c12)CCCC3` [Compound 17d, 3-Amino-N-(4-chlorophenyl)-4-phenyl-5,6,7,8-tetrahydrothieno[2,3-b]quinoline-2-carboxamide], in data set [1], the activity at 0.3 µM was 6.2 ± 5.7% and the activity at 3 µM is 8.4 ± 17.5%. Moreover, the remaining activity at 10 µM at rPfGSK-3 was 106 ± 10.6%.

A word on the IC50: it is the concentration needed to halve the response being measured. Low values mean inhibition by little substance, high ones a need for much substance. By viability is commonly meant a read-out of living cells in per cent, often relative to untreated cells.
